Measured values taken from patent publication US20080261994A1, “CYCLOPROPANE COMPOUNDS AND PHARMACEUTICAL USE THEREOF” (Japan Tobacco Inc., priority 2003, published 2008).
Read-outs that look alike come from different tables or passages of the source.

How the values were obtained:
Type in all cases: biochemical
Recombinant Human MMP-13 = target: T1, Recombinant Human MMP-13 (Homo sapiens, UniProt P45452); assay: MMP-13 inhibitory activity (MMP-13 specific fluorescent substrate with quencher)
T1 construct: purchased R&D systems 511-MM
In short: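 Recombinant human MMP-13 with test compound, reaction started with quenched fluorogenic peptide 7-MCA-Pro-CHA-Gly-NVal-His-Ala-DPA in Tris-HCl buffer, 1 h at 25 °C, stopped with acetic acid. Fluorescence at Ex 325/Em 405 nm; % inhibition versus enzyme-free and inhibitor-free wells, reported as IC50 (μM).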

aggrecanase-1 = target: T2, aggrecanase-1 (Homo sapiens, UniProt O75173); assay: Aggrecanase-1 inhibitory action (Particle Assay, GAG release from aggrecan-containing polyacrylamide particles)
T2 sequence (O75173 213-837): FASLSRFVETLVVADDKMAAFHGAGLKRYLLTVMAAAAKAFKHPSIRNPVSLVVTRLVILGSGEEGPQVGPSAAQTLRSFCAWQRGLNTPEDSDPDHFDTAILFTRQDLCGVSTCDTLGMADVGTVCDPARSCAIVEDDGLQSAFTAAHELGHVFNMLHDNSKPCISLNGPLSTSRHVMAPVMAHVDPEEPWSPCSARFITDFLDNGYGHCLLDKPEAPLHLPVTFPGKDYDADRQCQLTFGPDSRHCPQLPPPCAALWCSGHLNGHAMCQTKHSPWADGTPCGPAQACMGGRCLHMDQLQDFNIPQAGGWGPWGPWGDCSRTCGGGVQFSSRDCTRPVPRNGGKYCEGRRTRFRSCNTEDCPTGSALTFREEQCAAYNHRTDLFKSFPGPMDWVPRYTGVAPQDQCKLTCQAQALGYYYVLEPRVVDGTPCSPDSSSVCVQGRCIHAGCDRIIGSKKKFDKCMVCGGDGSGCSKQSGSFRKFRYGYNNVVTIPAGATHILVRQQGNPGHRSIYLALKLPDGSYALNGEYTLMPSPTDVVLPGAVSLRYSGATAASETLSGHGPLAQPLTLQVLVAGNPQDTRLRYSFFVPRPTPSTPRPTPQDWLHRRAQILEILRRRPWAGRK
In short: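 Enzyme and compound incubated with aggrecan-containing polyacrylamide particles in Tris-HCl buffer at 37° C for 15 h. Released GAG in supernatant measured with 1,9-dimethylmethylene blue at 595 nm against chondroitin sulfate standard; % inhibition from enzyme-free and inhibitor-free wells, reported as TC50 (μM).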

MMP-1 = target: T3, MMP-1 (Homo sapiens, UniProt P03956); assay: MMP-1 inhibitory action (Type I collagen Activity Measurement kit, FITC-labeled collagen type I)
T3 sequence (P03956 100-469): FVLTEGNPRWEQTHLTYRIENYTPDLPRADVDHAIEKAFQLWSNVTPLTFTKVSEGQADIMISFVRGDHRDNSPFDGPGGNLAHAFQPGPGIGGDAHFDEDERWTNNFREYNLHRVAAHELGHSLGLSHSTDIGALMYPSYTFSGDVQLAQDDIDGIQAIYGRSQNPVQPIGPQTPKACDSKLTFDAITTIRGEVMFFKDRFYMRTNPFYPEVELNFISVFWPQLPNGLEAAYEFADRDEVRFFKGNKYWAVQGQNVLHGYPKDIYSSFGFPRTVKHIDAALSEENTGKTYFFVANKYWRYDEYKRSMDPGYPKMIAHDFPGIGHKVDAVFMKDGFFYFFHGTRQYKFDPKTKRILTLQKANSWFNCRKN

[1] = Recombinant Human MMP-13, fluorescent substrate, 25° C. for 1 h, read-out: IC50 MMP13 (Experimental Example 3)
[2] = aggrecanase-1 inhibitory action, read-out: IC50 AG1 (Experimental Example 1)
[3] = MMP-1 inhibitory action, FITC-labeled collagen type I, 37° C. for 3 hr, read-out: IC50 MMP1 (Experimental Example 2)
[4] = Experimental Example 3, read-out: IC50 MMP13
[5] = Experimental Example 1, read-out: IC50 AG1
[6] = Experimental Example 2, read-out: IC50 MMP1

Row | IC50 (Recombinant Human MMP-13; [1]) [nM] | IC50 (aggrecanase-1; [2]) [nM] | IC50 (MMP-1; [3]) [nM] | IC50 (Recombinant Human MMP-13; [4]) [nM] | IC50 (aggrecanase-1; [5]) [nM] | IC50 (MMP-1; [6]) [nM] | Structure (SMILES)
1 | < 1000 | < 100 | ≥ 10000 | – | – | – | CN(C)C(=O)Cc1ccccc1C1CC1(NS(=O)(=O)c1ccc(-c2ccc(Cl)cc2)s1)C(=O)O (stereo not drawn) [Example 2-204]
2 | < 1000 | < 1000 | ≥ 10000 | – | – | – | O=C(O)C1(NS(=O)(=O)c2ccc(-c3ccc(C(F)(F)F)cc3)s2)CC1c1ccccc1 (stereo not drawn) [Example 2-19]
3 | – | – | – | < 100 | ≥ 1000 | ≥ 10000 | O=C(O)C1(NS(=O)(=O)c2cn3cc(-c4ccc(Cl)cc4)nc3s2)CC1c1ccccc1 (stereo not drawn) [Example 2-490]
4 | – | – | – | ≥ 1000 | ≥ 1000 | ≥ 1000 | COc1ccc(CN2CCN(S(=O)(=O)N[C@@]3(C(=O)O)C(C)[C@@H]3c3ccccc3)CC2)cc1 (stereo partly drawn) [Example 2-536]
5 | – | – | – | ≥ 1000 | ≥ 1000 | ≥ 1000 | CC1[C@H](c2ccccc2)[C@]1(NS(=O)(=O)N1Cc2ccc(O)cc2C1)C(=O)O (stereo partly drawn) [Example 2-548]
6 | < 1000 | < 1000 | ≥ 10000 | – | – | – | O=C(NCCO)c1cccc(C2CC2(NS(=O)(=O)c2ccc(-c3ccc(Cl)cc3)s2)C(=O)O)c1 (stereo not drawn) [Example 2-75]
7 | – | – | – | ≥ 1000 | ≥ 1000 | ≥ 1000 | CC1[C@H](c2ccccc2)[C@]1(NS(=O)(=O)N1CCN(c2ccncc2)CC1)C(=O)O (stereo partly drawn) [Example 2-533]
8 | < 100 | < 1000 | ≥ 1000 | – | – | – | O=C(Cc1cccc(C2CC2(NS(=O)(=O)c2ccc(-c3cc(C(F)(F)F)on3)s2)C(=O)O)c1)N[C@H]1CC[C@H](O)CC1 (stereo partly drawn) [Example 2-233]
9 | – | – | – | < 100 | < 100 | < 1000 | O=C(CCc1ccc([C@H]2C[C@@]2(NS(=O)(=O)c2ccc(-c3cc(C(F)(F)F)on3)s2)C(=O)O)cc1)N1CCOCC1 [Example 2-279]
10 | – | – | – | < 100 | < 100 | < 1000 | CC1[C@H](c2ccccc2)[C@]1(NS(=O)(=O)c1ccc(-c2cc(N(C)C)on2)s1)C(=O)O (stereo partly drawn) [Example 2-419]
11 | – | – | – | ≥ 1000 | < 1000 | ≥ 10000 | CC1[C@H](c2ccccc2)[C@]1(NS(=O)(=O)N1CCCN(c2ccc(Cl)cc2)CC1)C(=O)O (stereo partly drawn) [Example 2-454]
12 | ≥ 1000 | ≥ 10000 | ≥ 10000 | – | – | – | O=C(O)C1(NS(=O)(=O)N2CC(Oc3ccc(Cl)cc3)C2)CC1c1ccccc1 (stereo not drawn) [Example 2-15]
13 | – | – | – | < 100 | ≥ 1000 | ≥ 10000 | Cc1cnn(-c2ccc(S(=O)(=O)N[C@@]3(C(=O)O)C[C@@H]3c3ccccc3)cn2)c1 [Example 2-481]
14 | – | – | – | < 1000 | < 1000 | ≥ 1000 | CN1CCN(C(=O)OCC2(c3ccccc3)CC2(NS(=O)(=O)c2ccc(-c3cc(C(F)(F)F)on3)s2)C(=O)O)CC1 (stereo not drawn) [Example 2-334]
15 | ≥ 1000 | ≥ 10000 | ≥ 10000 | – | – | – | O=C(O)C1(NS(=O)(=O)N2CCC(Oc3ccc(F)cc3)CC2)CC1c1ccccc1 (stereo not drawn) [Example 2-145]
16 | – | – | – | < 1000 | < 1000 | ≥ 1000 | C[C@]1(c2ccccc2)C[C@@]1(NS(=O)(=O)c1ccc(-c2ncc(Br)cn2)s1)C(=O)O [Example 2-414]
17 | – | – | – | ≥ 10000 | ≥ 1000 | ≥ 1000 | CC1C(NS(=O)(=O)c2ccc(-c3cc(C(F)(F)F)on3)s2)(C(=O)O)C1(C)c1ccccc1 (stereo not drawn) [Example 2-597]
18 | – | – | – | < 1000 | < 1000 | ≥ 1000 | CC1[C@H](c2ccccc2)[C@]1(NS(=O)(=O)c1ccc2nc(-c3ccccc3)[nH]c2c1)C(=O)O (stereo partly drawn) [Example 2-596]
19 | – | – | – | < 1000 | < 1000 | ≥ 1000 | COCCCC1(c2ccccc2)CC1(NS(=O)(=O)c1ccc(-n2cc(Cl)cn2)s1)C(=O)O (stereo not drawn) [Example 2-560]

Row | IC50 (Recombinant Human MMP-13; [1]) [nM] | IC50 (aggrecanase-1; [2]) [nM] | IC50 (MMP-1; [3]) [nM] | IC50 (Recombinant Human MMP-13; [4]) [nM] | IC50 (aggrecanase-1; [5]) [nM] | IC50 (MMP-1; [6]) [nM] | Structure (SMILES)
20 | – | – | – | < 1000 | < 1000 | ≥ 10000 | CN(C)CCSCC1(c2ccccc2)CC1(NS(=O)(=O)c1ccc(-c2ccc(Cl)cc2)s1)C(=O)O (stereo not drawn) [Example 2-337]
21 | < 100 | < 100 | < 1000 | – | – | – | O=C(O)[C@]1(NS(=O)(=O)c2ccc(-c3cc(C(F)(F)F)on3)s2)[C@H](CO)[C@@H]1c1ccccc1 (relative stereo) [Example 2-10, (1R*,2R*,3R*)-2-hydroxymethyl-3-phenyl-1-[5-(5-trifluoromethyl-isoxazol-3-yl)-thiophene-2-sulfonylamino]-cyclopropanecarboxylic acid]
22 | – | – | – | < 100 | < 1000 | < 1000 | CCOC(=O)CSCC1(c2ccccc2)CC1(NS(=O)(=O)c1ccc(-c2cc(C(F)(F)F)on2)s1)C(=O)O (stereo not drawn) [Example 2-409]
23 | – | – | – | < 100 | < 100 | ≥ 1000 | CC(C)(C)OC(=O)NCCCC1(c2ccccc2)CC1(NS(=O)(=O)c1ccc(-c2ccc(Cl)cc2)s1)C(=O)O (stereo not drawn) [Example 2-284]
24 | < 100 | < 1000 | ≥ 1000 | – | – | – | CN(C)C(=O)CCc1ccccc1C1CC1(NS(=O)(=O)c1ccc(-c2cc(C(F)(F)F)on2)s1)C(=O)O (stereo not drawn) [Example 2-231]
25 | – | – | – | ≥ 1000 | ≥ 1000 | ≥ 10000 | CC1[C@H](c2ccccc2)[C@]1(NS(=O)(=O)N1CCCN(c2cccc(Cl)c2)CC1)C(=O)O (stereo partly drawn) [Example 2-471]
26 | – | – | – | < 1000 | < 1000 | ≥ 1000 | O=C(O)C1(NS(=O)(=O)c2ccc(-c3cc(C(F)(F)F)on3)s2)C2Cc3ccccc3C21 (stereo not drawn) [Example 2-277]
27 | < 1000 | ≥ 1000 | ≥ 10000 | – | – | – | O=C(O)C1(NS(=O)(=O)c2ccc(-c3ccc(Cl)cc3)s2)CC1c1ccc(OCc2ccccc2)cc1 (stereo not drawn) [Example 2-225]
28 | – | – | – | < 100 | < 100 | ≥ 1000 | NC(=O)OCCC1(c2ccccc2)CC1(NS(=O)(=O)c1ccc(-c2ccc(Cl)cc2)s1)C(=O)O (stereo not drawn) [Example 2-295]
29 | – | – | – | < 1000 | < 100 | < 1000 | COCCCC1(c2ccccc2)CC1(NS(=O)(=O)c1ccc(-c2cc(C(F)(F)F)on2)s1)C(=O)O (stereo not drawn) [Example 2-588]
30 | – | – | – | < 1000 | < 1000 | ≥ 1000 | CCNC(=O)OCC1(c2ccccc2)CC1(NS(=O)(=O)c1ccc(-c2cc(C(F)(F)F)on2)s1)C(=O)O (stereo not drawn) [Example 2-321]
31 | – | – | – | < 100 | < 100 | < 1000 | CNC(=O)Cc1ccc([C@@H]2C[C@]2(NS(=O)(=O)c2ccc(-c3cc(C(F)(F)F)on3)s2)C(=O)O)cc1 [Example 2-293]
32 | – | – | – | ≥ 1000 | < 100 | < 1000 | COc1cccc(C2(C)CC2(NS(=O)(=O)c2ccc(-c3cc(C(F)(F)F)on3)s2)C(=O)O)c1 (stereo not drawn) [Example 2-610]
33 | – | – | – | < 1000 | < 100 | ≥ 10000 | CC(C)SCC1(c2ccccc2)CC1(NS(=O)(=O)c1ccc(-c2ccc(Cl)cc2)s1)C(=O)O (stereo not drawn) [Example 2-349]
34 | < 100 | < 100 | ≥ 1000 | – | – | – | CC1C(c2ccccc2)C1(NS(=O)(=O)c1ccc(-c2ccc(Cl)cc2)s1)C(=O)O (stereo not drawn) [Example 2-237]
35 | – | – | – | ≥ 1000 | ≥ 1000 | ≥ 10000 | O=C(Nc1ccccc1)c1ccc(S(=O)(=O)N[C@@]2(C(=O)O)C[C@@H]2c2ccccc2)cc1 [Example 2-474]
36 | – | – | – | < 100 | < 100 | < 100 | CC1(c2ccccc2F)CC1(NS(=O)(=O)c1ccc(-c2cc(C(F)(F)F)on2)s1)C(=O)O (stereo not drawn) [Example 2-615]
37 | < 1000 | < 100 | ≥ 10000 | – | – | – | O=C(O)C1(NS(=O)(=O)c2ccc(-c3ccc(Cl)cc3)s2)CC1(CCCN1CCOCC1)c1ccccc1 (stereo not drawn) [Example 2-249]
38 | < 100 | < 100 | ≥ 1000 | – | – | – | O=C(O)C1(NS(=O)(=O)c2ccc(-c3ccc(Cl)cn3)s2)CC1c1ccccc1CO (stereo not drawn) [Example 2-63]
